According to PubChem BioAssay (NCI):
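All cell lines were grown in 96-well plates and treated with compound for 48 hours. The concentration for 50% growth inhibition is given as GI50. Definition used: TGI = concentration required for complete inhibition of growth.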

Assays:
Assay in all cases: NCI-60 cell line screen, 48 h
UACC-257 melanoma = test system: UACC-257 melanoma
OVCAR-3 ovarian = test system: OVCAR-3 ovarian
BT-549 breast = test system: BT-549 breast
HCT-116 colon = test system: HCT-116 colon
NCI-H226 lung = test system: NCI-H226 lung
MOLT-4 leukemia = test system: MOLT-4 leukemia
HL-60(TB) leukemia = test system: HL-60(TB) leukemia
786-0 renal = test system: 786-0 renal
TK-10 renal = test system: TK-10 renal
HCT-15 colon = test system: HCT-15 colon
HT29 colon = test system: HT29 colon
LOX IMVI melanoma = test system: LOX IMVI melanoma
M14 melanoma = test system: M14 melanoma
ACHN renal = test system: ACHN renal
HOP-62 NSCLC = test system: HOP-62 NSCLC
HOP-92 NSCLC = test system: HOP-92 NSCLC
A498 renal = test system: A498 renal
HCC-2998 colon = test system: HCC-2998 colon
SN12C renal = test system: SN12C renal
SR leukemia = test system: SR leukemia
UO-31 renal = test system: UO-31 renal
MALME-3M melanoma = test system: MALME-3M melanoma
CAKI-1 renal = test system: CAKI-1 renal
K-562 leukemia = test system: K-562 leukemia
OVCAR-8 ovarian = test system: OVCAR-8 ovarian
MCF7 breast = test system: MCF7 breast
UACC-62 melanoma = test system: UACC-62 melanoma
SK-MEL-2 melanoma = test system: SK-MEL-2 melanoma
NCI-H522 lung = test system: NCI-H522 lung
COLO 205 colon = test system: COLO 205 colon
CCRF-CEM leukemia = test system: CCRF-CEM leukemia
RXF 393 renal = test system: RXF 393 renal
SK-OV-3 ovarian = test system: SK-OV-3 ovarian
SW-620 colon = test system: SW-620 colon
KM12 colon = test system: KM12 colon
RPMI-8226 leukemia = test system: RPMI-8226 leukemia
PC-3 prostate = test system: PC-3 prostate
U251 CNS = test system: U251 CNS
MDA-MB-435 = test system: MDA-MB-435
SF-539 CNS = test system: SF-539 CNS
NCI/ADR-RES ovarian = test system: NCI/ADR-RES ovarian
OVCAR-5 ovarian = test system: OVCAR-5 ovarian
IGROV1 ovarian = test system: IGROV1 ovarian
SK-MEL-5 melanoma = test system: SK-MEL-5 melanoma
DU-145 prostate = test system: DU-145 prostate
SF-268 CNS = test system: SF-268 CNS
SNB-19 CNS = test system: SNB-19 CNS
NCI-H23 lung = test system: NCI-H23 lung
NCI-H460 lung = test system: NCI-H460 lung
EKVX NSCLC = test system: EKVX NSCLC
SF-295 CNS = test system: SF-295 CNS
A549 NSCLC = test system: A549 NSCLC
MDA-MB-231 breast = test system: MDA-MB-231 breast
T-47D breast = test system: T-47D breast
HS 578T breast = test system: HS 578T breast
OVCAR-4 ovarian = test system: OVCAR-4 ovarian
SK-MEL-28 melanoma = test system: SK-MEL-28 melanoma
SNB-75 CNS = test system: SNB-75 CNS

SMILES: CN(C)C(=O)OCc1nc2c(N3CCOCC3)nc(-c3ccccc3)nc2n1C
- GI50 (UACC-257 melanoma): 1360 nM
- TGI (UACC-257 melanoma): 2930 nM
- GI50 (OVCAR-3 ovarian): 203 nM
- TGI (OVCAR-3 ovarian): 433 nM
- GI50 (BT-549 breast): 1040 nM
- TGI (BT-549 breast): 2320 nM
- GI50 (HCT-116 colon): 204 nM
- TGI (HCT-116 colon): 616 nM
- GI50 (NCI-H226 lung): 1690 nM
- TGI (NCI-H226 lung): 3650 nM
- GI50 (MOLT-4 leukemia): 497 nM
- TGI (MOLT-4 leukemia): 3140 nM
- GI50 (HL-60(TB) leukemia): 375 nM
- TGI (HL-60(TB) leukemia): 1960 nM
- GI50 (786-0 renal): 892 nM
- TGI (786-0 renal): 2310 nM
- GI50 (TK-10 renal): 1460 nM
- TGI (TK-10 renal): 2810 nM
- GI50 (HCT-15 colon): 220 nM
- TGI (HCT-15 colon): 561 nM
- GI50 (HT29 colon): 476 nM
- TGI (HT29 colon): 1780 nM
- GI50 (LOX IMVI melanoma): 183 nM
- TGI (LOX IMVI melanoma): 402 nM
- GI50 (M14 melanoma): 609 nM
- TGI (M14 melanoma): 1900 nM
- GI50 (ACHN renal): 415 nM
- TGI (ACHN renal): 1430 nM
- GI50 (HOP-62 NSCLC): 1720 nM
- TGI (HOP-62 NSCLC): 4460 nM
- GI50 (HOP-92 NSCLC): 399 nM
- TGI (HOP-92 NSCLC): 1240 nM
- GI50 (A498 renal): 1340 nM
- TGI (A498 renal): 2680 nM
- GI50 (HCC-2998 colon): 1560 nM
- TGI (HCC-2998 colon): 3100 nM
- GI50 (SN12C renal): 912 nM
- TGI (SN12C renal): 2310 nM
- GI50 (SR leukemia): 252 nM
- TGI (SR leukemia): 2980 nM
- GI50 (UO-31 renal): 373 nM
- TGI (UO-31 renal): 1550 nM
- GI50 (MALME-3M melanoma): 1570 nM
- TGI (MALME-3M melanoma): 2960 nM
- GI50 (CAKI-1 renal): 450 nM
- TGI (CAKI-1 renal): 1700 nM
- GI50 (K-562 leukemia): 332 nM
- TGI (K-562 leukemia): 3170 nM
- GI50 (OVCAR-8 ovarian): 1260 nM
- TGI (OVCAR-8 ovarian): 3240 nM
- GI50 (MCF7 breast): 427 nM
- TGI (MCF7 breast): 2090 nM
- GI50 (UACC-62 melanoma): 1390 nM
- TGI (UACC-62 melanoma): 2730 nM
- GI50 (SK-MEL-2 melanoma): 1770 nM
- TGI (SK-MEL-2 melanoma): 3430 nM
- GI50 (NCI-H522 lung): 454 nM
- TGI (NCI-H522 lung): 2020 nM
- GI50 (COLO 205 colon): 1320 nM
- TGI (COLO 205 colon): 2970 nM
- GI50 (CCRF-CEM leukemia): 273 nM
- TGI (CCRF-CEM leukemia): 1550 nM
- GI50 (RXF 393 renal): 566 nM
- TGI (RXF 393 renal): 1680 nM
- GI50 (SK-OV-3 ovarian): 4060 nM
- TGI (SK-OV-3 ovarian): 13500 nM
- GI50 (SW-620 colon): 305 nM
- TGI (SW-620 colon): 899 nM
- GI50 (KM12 colon): 1540 nM
- TGI (KM12 colon): 3320 nM
- GI50 (RPMI-8226 leukemia): 189 nM
- TGI (RPMI-8226 leukemia): 675 nM
- GI50 (PC-3 prostate): 507 nM
- TGI (PC-3 prostate): 1310 nM
- GI50 (U251 CNS): 1470 nM
- TGI (U251 CNS): 2980 nM
- GI50 (MDA-MB-435): 891 nM
- TGI (MDA-MB-435): 2270 nM
- GI50 (SF-539 CNS): 1400 nM
- TGI (SF-539 CNS): 2720 nM
- GI50 (NCI/ADR-RES ovarian): 1590 nM
- TGI (NCI/ADR-RES ovarian): 6530 nM
- GI50 (OVCAR-5 ovarian): 1600 nM
- TGI (OVCAR-5 ovarian): 3260 nM
- GI50 (IGROV1 ovarian): 618 nM
- TGI (IGROV1 ovarian): 1920 nM
- GI50 (SK-MEL-5 melanoma): 1420 nM
- TGI (SK-MEL-5 melanoma): 2730 nM
- GI50 (DU-145 prostate): 1050 nM
- TGI (DU-145 prostate): 2280 nM
- GI50 (SF-268 CNS): 1390 nM
- TGI (SF-268 CNS): 2770 nM
- GI50 (SNB-19 CNS): 1530 nM
- TGI (SNB-19 CNS): 2930 nM
- GI50 (NCI-H23 lung): 1620 nM
- TGI (NCI-H23 lung): 3350 nM
- GI50 (NCI-H460 lung): 1660 nM
- TGI (NCI-H460 lung): 3520 nM
- GI50 (EKVX NSCLC): 1440 nM
- TGI (EKVX NSCLC): 2950 nM
- GI50 (SF-295 CNS): 1650 nM
- TGI (SF-295 CNS): 3080 nM
- GI50 (A549 NSCLC): 1560 nM
- TGI (A549 NSCLC): 3750 nM
- GI50 (MDA-MB-231 breast): 1250 nM
- TGI (MDA-MB-231 breast): 2620 nM
- GI50 (T-47D breast): 1850 nM
- TGI (T-47D breast): 4620 nM
- GI50 (HS 578T breast): 1420 nM
- TGI (HS 578T breast): 4330 nM
- GI50 (OVCAR-4 ovarian): 790 nM
- TGI (OVCAR-4 ovarian): 2160 nM
- GI50 (SK-MEL-28 melanoma): 1550 nM
- TGI (SK-MEL-28 melanoma): 2900 nM
- GI50 (SNB-75 CNS): 1100 nM
- TGI (SNB-75 CNS): 2370 nM
